Tests used:
[1] = system: GSK-3; conditions: Ring et al. 2003 / Cline et al. 2002, cited from earlier work; for EC50: read-out: half-maximal effective concentration [EC50]
[2] = mouse, in vivo, ip, 30 mg/kg

Question: For `O=[N+]([O-])c1ccc(NCCNc2ncc(-c3ncc[nH]3)c(-c3ccc(Cl)cc3Cl)n2)nc1` [CHIR-837], which “selectivity for GSK-3” value [1] is on record?
Answer: > 5,000 fold

Question: What about the EC50 [1] of the same compound?
Answer: 0.375 µM

Question: With `Cc1c[nH]c(-c2cnc(NCCNc3ccc(C#N)cn3)nc2-c2ccc(Cl)cc2Cl)n1` [CHIR-911] as the compound, how does the EC50 [1] read?
Answer: […]

Question: And the “glycemic state (blood glucose) of transplanted recipients” value [2]?
Answer: maintaining a normoglycemic state

Source: US8372397B2, “Methods for regulation of stem cells” (priority 2004, dated 2013)
